# According to paper PMC6906431, “Selective small molecule PARG inhibitor causes replication fork stalling and cancer cell death” (Nature Communications, 2019):
# Legend:
# [1] = target: T1, rat PARG (Rattus norvegicus, UniProt Q9QYM2); experiment: TR-FRET PAR turnover assay (HTS and dose-response); assay type: biochemical; details: for TR-FRET: 6.7 μM compound; for IC50: dose-response, rat PARG 12.5 nM, read-out: Estimated IC50
# T1 construct: The catalytic domain of rat PARG (residues 385–972) was purified as described previously; made in house
# From the text: Importantly, PARG enzymatic function can be required for tumorigenesis. Therefore, we sought to identify a selective PARG inhibitor through our robust PARG enzyme kinetic assay, which quantitatively monitors real-time PAR-mediated PARP1-XRCC1 interactions and disassembly in a multi-well format. A strong TR-FRET signal was generated upon assembly of the Tb^3+-chelated XRCC1 (FRET donor) with PARylated PARP1, which incorporates fluorescein-labeled ADP-ribose moieties into PAR chains (FRET acceptor). The addition of PARG caused a time-dependent loss of the TR-FRET signal by reversing PARylation and disassembling the PARP1-XRCC1 complex (Supplementary Fig. 1)[37].
# For a high-throughput screening (HTS) of PARG inhibitors, we developed a high-throughput PARG activity assay using the TR-FRET system (a manuscript describing the details of this assay will be published elsewhere). Briefly, the fluorescein molecule (FITC) was enzymatically incorporated into PARP1 in a reaction containing PARP1C (2 μM), the PARP1 DBD (2 μM), a 24 mer nicked DNA oligo (2 μM), and a mixture of unlabeled NAD^+ (Sigma) and FITC-NAD^+ (Trevigen) substrates (total NAD^+ concentration of 100 μM). After incubation for 1 h at 37 °C, PARylated PARP1 was desalted using a PD-10 desalting column (GE healthcare) in a buffer containing 25 mM Tris-HCl (pH 7.5), 50 mM NaCl, and 0.01% NP-40 and used as the FRET acceptor. The biotin-tagged BRCT1 domain of XRCC1 (BRCT1, 5 nM) was conjugated with an equimolar concentration of Tb^3+-chelated streptavidin (Life Technologies) in TR-FRET assay buffer (FRET donor). […] The reaction was started by the addition of the FRET pair of FITC-labeled PARP1 (42 nM) and Tb^3+-BRCT1 (5 nM). The TR-FRET signal was subsequently monitored for 60 min.
# Small molecule inhibitors of PARG were identified by high-throughput screening (HTS) using the TR-FRET PAR turnover assay. Compounds (final concentration of 6.7 μM) from the NCI Diversity Set II library (1990 compounds) were pre dispensed into black polystyrene 384-well plates (Corning) using a Hummingbird liquid handler (Digilab). Then, 10 μl of rat PARG^385–972 (12.5 nM and 25 nM) were subsequently dispensed into plates, using a multi-drop combi nL reagent dispenser (Thermo Scientific) and incubated with compounds for 1 h at 4 °C. The reaction was initiated by the addition of 20 μl of the premixed FRET pair of FITC-labeled PARP1 (42 nM) and Tb^3+-BRCT1 (5 nM), and the TR-FRET signal was monitored every 4 min for 40 min (11 data points). Hits were selected by visually comparing the rate of the TR-FRET signal decrease in each well to that of negative control reactions containing DMSO (Fig. 1b and see Text for details). The HTS was performed at the High-Throughput Screening Core (HTSC) at Washington University School of Medicine.
# [2] = target: T2, Human PARG (Homo sapiens, UniProt Q86W56); experiment: Gel-based PARG activity assay; assay type: biochemical; details: for IC50: hPARG 1 nM, PARylated PARP1C 500 nM, 30 min; for inhibition at 0.0488281 µM: [L] 0.0488281 uM; for inhibition at 0.0976562 µM: [L] 0.0976562 uM; for inhibition at 0.195312 µM: [L] 0.195312 uM; for inhibition at 0.390625 µM: [L] 0.390625 uM; for inhibition at 0.78125 µM: [L] 0.78125 uM; for inhibition at 1.5625 µM: [L] 1.5625 uM; for inhibition at 3.125 µM: [L] 3.125 uM; for inhibition at 6.25 µM: [L] 6.25 uM; for inhibition at 12.5 µM: [L] 12.5 uM; for inhibition at 25 µM: [L] 25 uM; for inhibition at 50 µM: [L] 50 uM
# T2 construct: The human PARG (hPARG) catalytic domain (residues 389–976) was cloned in pET28a (Novagen); His-tag (N); made in house; host or cells: E. coli Rosetta
# Method: PARP1C (2 μM) is enzymatically auto-modified in a reaction containing the PARP1 DBD (2 μM), a 24 mer nicked DNA oligo (2 μM), and NAD^+ (300 μM) for 1 h at 37 °C, as described previously. Human PARG^389–976 (1 nM) was pre-incubated with compounds for 1 h at room temperature. The reaction was initiated by the addition of PARylated PARP1 (final concentration of 500 nM) and quenched after 30 min incubation at room temperature by adding SDS-PAGE sample buffer. The gel was visualized by sypro-ruby staining[18] and the retained PARylated PARP1C species were quantified using ImageJ[59]. PARylated PARP1C that migrates slower than unmodified PARP1C was quantified. […] The IC50 values were determined by fitting the dose-response data for each compound to a four-parameter logistic equation using SigmaPlot (Systat Software Inc.).
# To test the specificity of JA2131, human PARG^389–976 (1 nM) was pre-incubated with JA2131 (5, 10, and 20 μM) in the presence and absence of 0.1% Triton-X 100 or 0.1 mg/ml BSA for 1 h at room temperature. The reaction was initiated, quenched, visualized, and quantified as described above. […]
# PARG activity assay. […]
# PARP1 (500 nM). The reaction was quenched after a 30 -minu te in cu ba tion a t roo m te mpe ra tu re by adding SDS-PA GE sa mp le bu f fe r. PARylated PARP1C runs as a smear on SDS -PAGE that is reduced to a single band by PARG treatment. […]
# 2). (b) Qu an t if ica t ion o f the dose-response PARG inhibition by JA2 -3 using the gel-based PARG activity assay. hPARG (1 nM) was preincubated with increasing concentrations (0.032 – 1 µM) of JA2-3 f o r 1 hour at room temperature before PARylated PARP1C (500 nM) was added. The reaction was quenched after a 30-minu te incubation at room temperature. PARylated PARP1C migrates slower than unmodified PARP1C and was quantified using ImageJ. […] The rate of the PARG-dependent signal loss in the TR-FRET PAR turnover assay is not equivalent to the steady-state rate of PAR turnover, because the TR-FRET assay can’t detect signal loss until the length of PAR chains become shorter than 7 ADP-ribose units. Therefore, we used the gel-based PARG activity assay to accurately determine the IC50 values throughout the manuscript .
# [3] = tested on: A172 glioblastoma cells; experiment: Sulforhodamine B (SRB) cytotoxicity assay; details: 72 h
# Method: Normalized % viabilities are plotted against log concentration. Error bars show the percent coefficient of variation. […] Mann-Whitney test was used to generate the p-value. The DNA spread assay is the representation of two independently repeated experiments. Source Data are provided as a Source Data file.
# Cells were plated in 96-well plates, treated as designated in reduced 5% FBS and fixed with trichloroacetic acid after 72 h, as previously described by[43]. […] Colorimetric or fluorescence analysis was performed in a FlexStation 3, using SoftMax Pro 7.0, Molecular Devices. Normalized graphs were generated with Prism 8 software, non-linear 4-parameter data fitting was performed for IC50 calculation.
# T1 sequence (Q9QYM2 385-972): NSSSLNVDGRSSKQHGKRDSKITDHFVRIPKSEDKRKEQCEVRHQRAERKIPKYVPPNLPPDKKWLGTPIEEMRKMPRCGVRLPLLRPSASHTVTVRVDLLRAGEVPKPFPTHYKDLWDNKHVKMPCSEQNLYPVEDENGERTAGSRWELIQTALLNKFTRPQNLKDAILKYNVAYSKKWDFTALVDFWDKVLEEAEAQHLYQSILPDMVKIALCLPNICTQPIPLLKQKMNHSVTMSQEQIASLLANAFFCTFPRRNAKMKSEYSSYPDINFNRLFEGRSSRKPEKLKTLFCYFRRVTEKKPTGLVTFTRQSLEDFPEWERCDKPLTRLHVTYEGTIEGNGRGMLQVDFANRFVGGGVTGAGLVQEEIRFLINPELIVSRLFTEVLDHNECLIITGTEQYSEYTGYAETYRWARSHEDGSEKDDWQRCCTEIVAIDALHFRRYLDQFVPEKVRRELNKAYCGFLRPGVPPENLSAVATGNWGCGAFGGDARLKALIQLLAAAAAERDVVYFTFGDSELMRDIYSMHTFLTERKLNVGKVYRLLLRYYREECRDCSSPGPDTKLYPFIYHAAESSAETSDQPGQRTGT
# T2 sequence (Q86W56 389-976): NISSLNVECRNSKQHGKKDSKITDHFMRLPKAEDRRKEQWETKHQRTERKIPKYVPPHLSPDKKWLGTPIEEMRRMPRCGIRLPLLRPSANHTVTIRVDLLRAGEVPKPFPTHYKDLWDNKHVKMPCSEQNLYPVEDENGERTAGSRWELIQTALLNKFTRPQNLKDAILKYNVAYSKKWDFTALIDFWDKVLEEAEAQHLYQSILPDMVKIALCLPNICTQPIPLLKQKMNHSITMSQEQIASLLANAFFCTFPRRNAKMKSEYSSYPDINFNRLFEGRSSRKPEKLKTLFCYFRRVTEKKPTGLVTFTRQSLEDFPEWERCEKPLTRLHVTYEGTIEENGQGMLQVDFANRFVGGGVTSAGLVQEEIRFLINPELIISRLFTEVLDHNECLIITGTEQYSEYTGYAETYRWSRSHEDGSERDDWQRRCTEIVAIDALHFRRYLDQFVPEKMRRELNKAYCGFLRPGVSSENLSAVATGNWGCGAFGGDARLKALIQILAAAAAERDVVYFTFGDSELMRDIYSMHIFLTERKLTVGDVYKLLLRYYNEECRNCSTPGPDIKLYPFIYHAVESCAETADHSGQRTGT
compound,measurement,setting,value
O=c1[nH]c2[nH]c(=S)[nH]c(=S)c2[nH]1 [JA2-3],TR-FRET,"[1]; 12.5 nM PARG, 0 min",1.1077
same,TR-FRET,"[1]; 12.5 nM PARG, 4 min",1.1706
same,TR-FRET,"[1]; 12.5 nM PARG, 8 min",1.1753
same,TR-FRET,"[1]; 12.5 nM PARG, 12 min",1.0984
same,TR-FRET,"[1]; 12.5 nM PARG, 16 min",1.1414
same,TR-FRET,"[1]; 12.5 nM PARG, 20 min",1.0328
same,TR-FRET,"[1]; 12.5 nM PARG, 24 min",0.9368
same,TR-FRET,"[1]; 12.5 nM PARG, 28 min",0.9375
same,TR-FRET,"[1]; 12.5 nM PARG, 32 min",0.9636
same,TR-FRET,"[1]; 12.5 nM PARG, 36 min",0.9240
same,TR-FRET,"[1]; 12.5 nM PARG, 40 min",0.9660
same,TR-FRET,"[1]; 25 nM PARG, 0 min",1.1716
same,TR-FRET,"[1]; 25 nM PARG, 4 min",1.2418
same,TR-FRET,"[1]; 25 nM PARG, 8 min",1.1876
same,TR-FRET,"[1]; 25 nM PARG, 12 min",1.1061
same,TR-FRET,"[1]; 25 nM PARG, 16 min",1.0537
same,TR-FRET,"[1]; 25 nM PARG, 20 min",1.0170
same,TR-FRET,"[1]; 25 nM PARG, 24 min",0.9403
same,TR-FRET,"[1]; 25 nM PARG, 28 min",0.9903
same,TR-FRET,"[1]; 25 nM PARG, 32 min",1.0366
same,TR-FRET,"[1]; 25 nM PARG, 36 min",0.9358
same,TR-FRET,"[1]; 25 nM PARG, 40 min",1.0455
same,inhibition at 0.0001 µM,"[2]; 0.5 h, [L] 1.00E-04 uM",0%
same,inhibition at 0.03125 µM,[2]; [L] 0.03125 uM,17%
same,inhibition at 0.0625 µM,[2]; [L] 0.0625 uM,35.9%
same,inhibition at 0.125 µM,[2]; [L] 0.125 uM,56.7%
same,inhibition at 0.25 µM,[2]; [L] 0.25 uM,74.4%
same,inhibition at 0.5 µM,[2]; [L] 0.5 uM,88%
same,inhibition at 1 µM,[2]; [L] 1 uM,103%
same,IC50,[2],100 nM
Cn1c(=S)c2nc(SCCN3CCCC3)[nH]c2n(C)c1=O [JA2-4],inhibition at 0.0488281 µM,[2],2.01%
same,inhibition at 0.0976562 µM,[2],4.3%
same,inhibition at 0.195312 µM,[2],25.2%
same,inhibition at 0.390625 µM,[2],34.9%
same,inhibition at 0.78125 µM,[2],48.4%
same,inhibition at 1.5625 µM,[2],67%
same,inhibition at 3.125 µM,[2],70.1%
same,inhibition at 6.25 µM,[2],78.4%
same,inhibition at 12.5 µM,[2],87.5%
same,inhibition at 25 µM,[2],93.6%
same,inhibition at 50 µM,[2],100%
same,IC50,[2],900 nM
O=C1C=CC(=Nc2cccc3c(N=C4C=CC(=O)O4)cccc23)O1 [JA1-3],IC50,[1],~400 nM
Cn1c(=O)c2[nH]c(SCCN3CCOCC3)nc2n(C)c1=S [JA2-5],inhibition at 0.0488281 µM,[2],6.3%
same,inhibition at 0.0976562 µM,[2],19.6%
same,inhibition at 0.195312 µM,[2],28.3%
same,inhibition at 0.390625 µM,[2],27.3%
same,inhibition at 0.78125 µM,[2],35.2%
same,inhibition at 1.5625 µM,[2],71%
same,inhibition at 3.125 µM,[2],81.9%
same,inhibition at 6.25 µM,[2],87.9%
same,inhibition at 12.5 µM,[2],89.1%
same,inhibition at 25 µM,[2],99.8%
same,inhibition at 50 µM,[2],104%
same,IC50,[2],1000 nM
NC(=O)NO [Hydroxyurea],IC50,[3],381000 ± 117000 nM
Cn1c(=O)c2[nH]c(SCCN3CCOCC3)nc2n(C)c1=O [JA2120],potency difference JA2131 (6´-thiocarbonyl) vs JA2120 (6´-carbonyl),[2],more than 50 fold
same,inhibition at 0.0488281 µM,[2],6.05%
same,inhibition at 0.0976562 µM,[2],5.87%
same,inhibition at 0.195312 µM,[2],7.21%
same,inhibition at 0.390625 µM,[2],10.4%
same,inhibition at 0.78125 µM,[2],16.2%
same,inhibition at 1.5625 µM,[2],24.6%
same,inhibition at 3.125 µM,[2],25.7%
same,inhibition at 6.25 µM,[2],24.7%
same,inhibition at 12.5 µM,[2],33.9%
same,inhibition at 25 µM,[2],45.5%
same,inhibition at 50 µM,[2],67%
same,inhibition at 100 µM,[2]; [L] 100 uM,88.3%
same,IC50,[2],25700 nM
CCCOCN1C(=O)C=CC1=O [JA1-1],IC50,[1],1000 to 2000 nM
